Structures can show the parent of a compound that is named as a salt.
Key:
Type in all cases: in vivo
[1] = tested on: type-II diabetes model mice (db/db mice); assay: Test Example 4: random and fasting blood glucose levels during repetitive administration, 40 days; conditions: 1 mL once a day for 40 days, test samples 1 μg/mL, control sample 15 μg/ml; for changes over time in random blood glucose levels: FIG. 1; for changes over time in fasting blood glucose levels: after 15 hours of fasting, FIG. 2
Procedure: This test was performed in order to evaluate the hemoglobin Alc lowering action and hyperglycemia improving effect activity of compounds having the cyclolanostane skeleton.
The 9,19-cyclolanostan-3-ol and 24-methylene-9,19-cyclolanostan-3-ol produced in Preparation Example 1 mentioned above were used as test samples 1 and 2, respectively. Further, β-sitosterol (Tama Biochemical Co., Ltd.) was used as a control sample.
In this test, 6-week old male db/db mice (purchased from Clea Japan, Inc.) were used as type-II diabetes model mice. These mice were divided into groups, each consisting of 7 animals. Each sample was dissolved in DMSO, and the concentrations of 9,19-cyclolanostan-3-ol and […] were adjusted to 1 μg/mL with physiological saline to obtain test sample 1 solution and test sample 2 solution. Further, concentration of β-sitosterol was adjusted to 15 μg/ml in a similar manner to obtain a control sample solution. The final DMSO concentration was adjusted to 0.2%. […] The type-II diabetes model mice were administered with 1 mL of one of the test sample solutions, control sample solution and negative sample solution once a day everyday with a sonde for 40 consecutive days. Fasting blood glucose levels and random blood glucose levels were measured over time by using Antisense II (Bayer-Sankyo Co., Ltd.). The fasting blood glucose levels were measured after 15 hours of fasting.

[2] = tested on: type-II diabetes model mice (db/db mice); assay: Test Example 1: hemoglobin Alc lowering action, repetitive administration for 45 days; conditions: for Hemoglobin Alc levels (%) 43rd day from the administration: 1 mL of 1 μg/mL once a day with a sonde, negative sample = 100; for lowering effect on hemoglobin Alc levels in comparison with negative sample: 43rd day, 1 mL of 1 μg/mL once a day
Procedure: This test was performed in order to determine the hemoglobin Alc lowering action of a compound having the cyclolanostane skeleton.
The 9,19-cyclolanostan-3-ol and 24-methylene-9,19-cyclolanostan-3-ol produced in Preparation Example 1 mentioned above were used as test samples 1 and 2, respectively.
As type-II diabetes model mice, 6-week old male db/db mice (purchased from Clea Japan, Inc.) were used in this test. These mice were divided into groups, each consisting of 7 animals. Each test sample was dissolved in DMSO, and the concentration was adjusted to 1 μg/mL with physiological saline. The final DMSO concentration was adjusted to 0.2%. […] The type-II diabetes model mice were administered with 1 mL of either of the test sample solutions or the negative sample solution once a day everyday with a sonde for 45 consecutive days. On the 43rd day of the repetitive administration, hemoglobin Alc levels were measured by using DCA 2000 (Bayer-Sankyo Co., Ltd.).

[3] = tested on: type-II diabetes model mice (db/db mice); assay: Test Example 2: hemoglobin Alc lowering action compared with a clinical antidiabetic drug, 22 days; conditions: for Hemoglobin Alc levels (%) 23rd day from the administration: oral 1 mL once a day for 22 days, test samples 1 μg/mL, control sample 1 7.5 μg/mL pioglitazone hydrochloride, negative sample = 100
Procedure: This test was performed in order to compare the hemoglobin Alc lowering action of the compounds of the present invention with that of an antidiabetic drug used in the clinical practice.
The same test sample 1 (9,19-cyclolanostan-3-ol) and test sample 2 (24-methylene-9,19-cyclolanostan-3-ol) used in Test Example 1 were used.
As type-II diabetes model mice, 6-week old male db/db mice (purchased from Clea Japan, Inc.) were used. These mice were divided into groups, each consisting of 7 animals. Each test sample was dissolved in DMSO, and the concentration was adjusted to 1 μg/mL with physiological saline. The final DMSO concentration was adjusted to 0.2%. […] Further, as a control sample 1, ACTOS® tablets (Takeda Pharmaceutical Co., Ltd.) were ground in a mortar and dissolved in physiological saline so that the concentration of pioglitazone hydrochloride as the active ingredient should become 7.5 μg/mL. The type-II diabetes model mice were orally administered with 1 mL of each test sample solution, control sample 1 solution or negative sample solution once a day everyday with a sonde for 22 consecutive days. On the 23rd day from the start of the administration, hemoglobin Alc levels were measured by using DCA 2000 (Bayer-Sankyo Co., Ltd.).

[4] = tested on: type-II diabetes model mice (db/db mice); assay: Test Example 3: effective concentration of 24-methylene-9,19-cyclolanostan-3-ol for hemoglobin Alc lowering, 40 days; conditions: for Hemoglobin Alc levels (%) 41st day from the administration: negative sample = 100; for lowering effect for the hemoglobin Alc levels in comparison with negative sample: 41st day
Procedure: The 24-methylene-9,19-cyclolanostan-3-ol produced in Preparation Example 1 mentioned above was used as a test sample 3.
In this test, 6-week old male db/db mice (purchased from Clea Japan, Inc.) were used as type-II diabetes model mice. These mice were divided into groups, each consisting of 7 animals. The test sample 3 was dissolved in DMSO, and the concentration of 24-methylene-9,19-cyclolanostan-3-ol was adjusted to 0.1 or 1 μg/ml with physiological saline. The final DMSO concentration was adjusted to 0.2%. […] The type-II diabetes model mice were administered with 1 mL of the test sample 3 solution of either concentration or negative sample solution once a day everyday with a sonde for 40 consecutive days. On the 41st day from the start of the repetitive administration, hemoglobin Alc levels were measured by using DCA 2000 (Bayer-Sankyo Co., Ltd.).

Row | Compound | changes over time in random blood glucose levels [1] | changes over time in fasting blood glucose levels [1] | Hemoglobin Alc levels (%) 43rd day from the administration [2] [%] | lowering effect on hemoglobin Alc levels in comparison with negative sample [2] [%] | Hemoglobin Alc levels (%) 23rd day from the administration [3] [%] | Hemoglobin Alc levels (%) 41st day from the administration ([4]; 0.1 μg (1 mL of 0.1 μg/ml once a day, 40 days)) [%] | Hemoglobin Alc levels (%) 41st day from the administration ([4]; 1 μg (1 mL of 1 μg/ml once a day, 40 days)) [%] | lowering effect for the hemoglobin Alc levels in comparison with negative sample ([4]; dose of 0.1 μg/day) | lowering effect for the hemoglobin Alc levels in comparison with negative sample ([4]; dose of 1 μg/day) [%] | decreases in hemoglobin Alc levels in comparison with negative sample ([3]; 23rd day from the start of the administration)
1 | C=C(CCC(C)C1CCC2(C)C3CCC4C(C)(C)C(O)CCC45CC35CCC12C)C(C)C (stereo not drawn) [Test sample 2, 24-methylene-9,19-cyclolanostan-3-ol] | effect of suppressing the increases in blood glucose levels was clearly observed | effect of suppressing the increases in blood glucose levels was clearly observed | 85.6 ± 9.3 | 14.5 | 82.0 ± 7.9 |  |  |  |  | 
2 | CC[C@H](CC[C@@H](C)[C@H]1CC[C@H]2[C@@H]3CC=C4C[C@@H](O)CC[C@]4(C)[C@H]3CC[C@]12C)C(C)C [Control sample, β-sitosterol, reference compound] | rapid increase were observed | rapid increase were observed |  |  |  |  |  |  |  | 
3 | 24-methylene-9,19-cyclolanostan-3-ol [Test sample 2] |  |  |  |  |  | 98.1 ± 22.3 | 81.6 ± 14.6 | about 1.9% | 18.4 | 
4 | CC(C)CCCC(C)C1CCC2(C)C3CCC4C(C)(C)C(O)CCC45CC35CCC12C (stereo not drawn) [Test sample 1, 9,19-cyclolanostan-3-ol] | effect of suppressing the increases in blood glucose levels was clearly observed | effect of suppressing the increases in blood glucose levels was clearly observed | 91.8 ± 19.6 | 8.2 | 85.4 ± 11.2 |  |  |  |  | 
5 | CCc1ccc(CCOc2ccc(CC3SC(=O)NC3=O)cc2)nc1 (stereo not drawn) [Control sample 1, pioglitazone hydrochloride, reference compound] |  |  |  |  | 92.1 ± 0.2 |  |  |  |  | about 0.8%
